According to patent US10858335B2 (Rigel Pharmaceuticals, Inc., priority 2014, dated 2020):

System: GDF8 signaling (p-SMAD-3 (Ser423/425))
Experiment: AlphaScreen SureFire SMAD3 (p-Ser423/425) assay, GDF8-stimulated cells (GDF pSMAD)
Assay type: cell-based
Conditions: Mus musculus, MPC-11, GDF8-stimulated pSMAD3, MPC11; tested as the salt form given; read-out: GDF pSMAD (MPC11) (μM), inhibition of GDF8 signaling

Row | IC50 [µM] | Compound
1 | 1 | Nc1ncnc2ccc(-c3cccnc3-c3cccc(O)c3)cc12 [compound 977, 3-(3-(4-aminoquinazolin-6-yl)pyridin-2-yl)phenol]
2 | 1.87 | Nc1ncnc2ccc(-c3cccnc3-c3ccc(F)c(Cl)c3F)cc12 [compound 978, 6-(2-(3-chloro-2,4-difluorophenyl)pyridin-3-yl)quinazolin-4-amine]
3 | 3.73 | Cc1cc2ncnc(N)c2cc1-c1cccnc1-c1ccc(F)c(Cl)c1 [compound 980, 6-(2-(3-chloro-4-fluorophenyl)pyridin-3-yl)-7-methylquinazolin-4-amine]
4 | 9.34 | Cc1cc2ncnc(N)c2cc1-c1cccnc1-c1cc(Cl)ccc1F [compound 981, 6-(2-(5-chloro-2-fluorophenyl)pyridin-3-yl)-7-methylquinazolin-4-amine]
5 | 0.0411 | Nc1ncnc2ccc(-c3cccnc3-c3cccc(OC(F)F)c3)cc12 [compound 982, 6-(2-(3-(difluoromethoxy)phenyl)pyridin-3-yl)quinazolin-4-amine]
6 | 1.46 | Cc1ccc(C)c(-c2ncccc2-c2ccc3ncnc(N)c3c2)c1 [compound 983, 6-(2-(2,5-dimethylphenyl)pyridin-3-yl)quinazolin-4-amine]
7 | 0.45 | Cc1ccc(Cl)c(-c2ncccc2-c2ccc3ncnc(N)c3c2)c1 [compound 984, 6-(2-(2-chloro-5-methylphenyl)pyridin-3-yl)quinazolin-4-amine]
8 | 2.18 | Cc1cc(-c2cccnc2-c2ccc(F)c(Cl)c2)cc2c(N)ncnc12 [compound 985, 6-(2-(3-chloro-4-fluorophenyl)pyridin-3-yl)-8-methylquinazolin-4-amine]
9 | 0.956 | Cc1cc(-c2ncccc2-c2cc(C)c3ncnc(N)c3c2)ccc1F [compound 986, 6-(2-(4-fluoro-3-methylphenyl)pyridin-3-yl)-8-methylquinazolin-4-amine]
10 | 8 | Cc1cc(F)c(F)cc1-c1ncccc1-c1ccc2ncnc(N)c2c1 [compound 987, 6-(2-(4,5-difluoro-2-methylphenyl)pyridin-3-yl)quinazolin-4-amine]
11 | 1.06 | Cc1cc(C)c(-c2ncccc2-c2ccc3ncnc(N)c3c2)cc1F [compound 988, 6-(2-(5-fluoro-2,4-dimethylphenyl)pyridin-3-yl)quinazolin-4-amine]
12 | 0.692 | Cc1cc(F)c(Cl)cc1-c1ncccc1-c1ccc2ncnc(N)c2c1 [compound 989, 6-(2-(5-chloro-4-fluoro-2-methylphenyl)pyridin-3-yl)quinazolin-4-amine]

Row | Compound | IC50 [µM]
13 | CN(C)C(=O)Oc1cccc(-c2ncccc2-c2ccc3ncnc(N)c3c2)c1 [compound 979, 3-(3-(4-aminoquinazolin-6-yl)pyridin-2-yl)phenyl dimethylcarbamate] | 14

Same assay, conditions: Mus musculus, MPC-11, MPC11; GDF8-stimulated; p-SMAD3 AlphaScreen; read-out: GDF pSMAD (MPC11) (inhibition of GDF8 signaling)

Row | Compound | IC50 [µM]
14 | FC(F)(F)c1cccc(-c2ncccc2-c2ccn3nccc3n2)c1 [compound 913, 5-(2-(3-(Trifluoromethyl)phenyl)pyridin-3-yl)pyrazolo[1,5-a]pyrimidine] | 0.661
15 | Fc1cc(F)c(-c2ncccc2-c2ccn3nccc3n2)cc1F [compound 915, 5-(2-(2,4,5-Trifluorophenyl)pyridin-3-yl)pyrazolo[1,5-a]pyrimidine] | 0.558
16 | N#Cc1cnc2ccc(-c3cccnc3-c3ccc(F)c(Cl)c3)nn12 [compound 948, 6-(2-(3-Chloro-4-fluorophenyl)pyridin-3-yl)imidazo[1,2-b]pyridazine-3-carbonitrile] | 0.951
17 | N#Cc1cnc2ccc(-c3cccnc3-c3cc(Cl)c(F)cc3F)nn12 [compound 951, 6-(2-(5-Chloro-2,4-difluorophenyl)pyridin-3-yl)imidazo[1,2-b]pyridazine-3-carbonitrile] | 0.543
18 | Fc1ccc(-c2ncccc2-c2ccc3ncnn3n2)cc1Cl [compound 953, 6-(2-(3-Chloro-4-fluorophenyl)pyridin-3-yl)-[1,2,4]triazolo[1,5-b]pyridazine] | 0.661
19 | O=c1[nH]cnc2ccc(-c3cccnc3-c3ccc(F)c(Cl)c3)nc12 [compound 960, 6-(2-(3-Chloro-4-fluorophenyl)pyridin-3-yl)pyrido[3,2-d]pyrimidin-4(3H)-one] | 1.69
20 | FC(F)Oc1cccc(-c2ncccc2-c2ccc3nccnc3c2)c1 [compound 962, 6-(2-(3-(Difluoromethoxy)phenyl)pyridin-3-yl)quinoxaline] | 0.622
21 | Fc1ccc(-c2ncccc2-c2ccn3nccc3n2)c(F)c1Cl [compound 965, 5-(2-(3-Chloro-2,4-difluorophenyl)pyridin-3-yl)pyrazolo[1,5-a]pyrimidine] | 5.19
22 | Cn1cnc2ccc(-c3cccnc3-c3ccc(F)c(Cl)c3F)cc21 [compound 967, 6-(2-(3-Chloro-2,4-difluorophenyl)pyridin-3-yl)-1-methyl-1H-benzo[d]imidazole] | 1.44

Second part, the molecule after the results:

Row | IC50 [µM] | Compound
23 | 0.438 | Clc1cccc(-c2ncccc2-c2ccc3ncnn3n2)c1 [compound 954, 6-(2-(3-Chlorophenyl)pyridin-3-yl)-[1,2,4]triazolo[1,5-b]pyridazine]
24 | 0.429 | Cc1cc(-c2ncccc2-c2ccc3ncc(C#N)n3n2)ccc1F [compound 947, 6-(2-(4-Fluoro-3-methylphenyl)pyridin-3-yl)imidazo[1,2-b]pyridazine-3-carbonitrile]
25 | 0.421 | Fc1cc(F)c(-c2ncccc2-c2ccc3ncnn3n2)cc1Cl [compound 956, 6-(2-(5-Chloro-2,4-difluorophenyl)pyridin-3-yl)-[l 1,2,4]triazolo[1,5-b]pyridazine]
26 | 0.41 | Cc1cc(-c2ncccc2-c2ccc3nccn3n2)ccc1F [compound 934, 6-(2-(4-Fluoro-3-methylphenyl)pyridin-3-yl)imidazo[1,2-b]pyridazine]
27 | 0.391 | Cc1cc(-c2ncccc2-c2ccc3ncnn3n2)ccc1F [compound 952, 6-(2-(4-Fluoro-3-methylphenyl)pyridin-3-yl)-[1,2,4]triazolo[1,5-b]pyridazine]
28 | 0.375 | N#Cc1cnc2ccc(-c3cccnc3-c3cccc(Cl)c3)nn12 [compound 949, 6-(2-(3-Chlorophenyl)pyridin-3-yl)imidazo[1,2-b]pyridazine-3-carbonitrile]
29 | 0.29 | Fc1ccc(Cl)cc1-c1ncccc1-c1ccc2ncnn2n1 [compound 955, 6-(2-(5-Chloro-2-fluorophenyl)pyridin-3-yl)-[1,2,4]triazolo[1,5-b]pyridazine]
30 | 0.272 | Clc1ccc(Cl)c(-c2ncccc2-c2ccn3nccc3n2)c1 [compound 920, 5-(2-(2,5-Dichlorophenyl)pyridin-3-yl)pyrazolo[1,5-a]pyrimidine]
31 | 0.242 | Fc1cc(F)c(-c2ncccc2-c2ccc3nccn3n2)cc1Cl [compound 938, 6-(2-(5-Chloro-2,4-difluorophenyl)pyridin-3-yl)imidazo[1,2-b]pyridazine]
32 | 0.232 | Nc1ncnc2ccc(-c3cccnc3-c3ccc(F)c(Cl)c3)nc12 [compound 964, 6-(2-(3-Chloro-4-fluorophenyl)pyridin-3-yl)pyrido[3,2-d]pyrimidin-4-amine]
33 | 0.228 | Clc1cccc(-c2ncccc2-c2ccc3nccn3n2)c1 [compound 936, 6-(2-(3-Chlorophenyl)pyridin-3-yl)imidazo[1,2-b]pyridazine]
34 | 0.206 | Fc1cc(F)c(-c2ncccc2-c2ccn3nccc3n2)cc1Cl [compound 918, 5-(2-(5-Chloro-2,4-difluorophenyl)pyridin-3-yl)pyrazolo[1,5-a]pyrimidine]
35 | 0.192 | Fc1ccc(-c2ncccc2-c2ccc3nccn3n2)cc1Cl [compound 935, 6-(2-(3-Chloro-4-fluorophenyl)pyridin-3-yl)imidazo[1,2-b]pyridazine]
36 | 0.18 | Fc1ccc(Cl)cc1-c1ncccc1-c1ccn2nccc2n1 [compound 917, 5-(2-(5-Chloro-2-fluorophenyl)pyridin-3-yl)pyrazolo[1,5-a]pyrimidine]
37 | 0.175 | Cn1cnc2ccc(-c3cccnc3-c3cccc(OC(F)F)c3)cc21 [compound 963, 6-(2-(3-(Difluoromethoxy)phenyl)pyridin-3-yl)-1-methyl-1H-benzo[d]imidazole]
38 | 0.164 | Cc1cc(-c2ncccc2-c2ccnc(Nc3cccc(S(N)(=O)=O)c3)n2)ccc1F [compound 907, 3-((4-(2-(4-Fluoro-3-methylphenyl)pyridin-3-yl)pyrimidin-2-yl)amino)benzenesulfonamide]
39 | 0.129 | N#Cc1cnc2ccc(-c3cccnc3-c3cc(Cl)ccc3F)nn12 [compound 950, 6-(2-(5-Chloro-2-fluorophenyl)pyridin-3-yl)imidazo[1,2-b]pyridazine-3-carbonitrile]
40 | 0.129 | FC(F)Oc1cccc(-c2ncccc2-c2ccc3ncsc3c2)c1 [compound 961, 6-(2-(3-(Difluoromethoxy)phenyl)pyridin-3-yl)benzo[d]thiazole]
41 | 0.126 | Fc1ccc(-c2ncccc2-c2ccn3nccc3n2)cc1Cl [compound 914, 5-(2-(3-Chloro-4-fluorophenyl)pyridin-3-yl)pyrazolo[1,5-a]pyrimidine]
42 | 0.112 | c1cc(-c2ncccc2-c2ccn3nccc3n2)cc(C2CC2)c1 [compound 912, 5-(2-(3-Cyclopropylphenyl)pyridin-3-yl)pyrazolo[1,5-a]pyrimidine]
43 | 0.104 | Clc1cccc(-c2ncccc2-c2ccn3nccc3n2)c1 [compound 916, 5-(2-(3-Chlorophenyl)pyridin-3-yl)pyrazolo[1,5-a]pyrimidine]
44 | 0.0972 | Cc1cc(-c2ncccc2-c2ccn3nccc3n2)ccc1F [compound 910, 5-(2-(4-Fluoro-3-methylphenyl)pyridin-3-yl)pyrazolo[1,5-a]pyrimidine]
45 | 0.0939 | Cc1cccc(-c2ncccc2-c2ccn3nccc3n2)c1 [compound 911, 5-(2-(m-Tolyl)pyridin-3-yl)pyrazolo[1,5-a]pyrimidine]
46 | 0.0706 | FC(F)Oc1cccc(-c2ncccc2-c2ccn3nccc3n2)c1 [compound 921, 5-(2-(3-(Difluoromethoxy)phenyl)pyridin-3-yl)pyrazolo[1,5-a]pyrimidine]
